Test results from ChEMBL document CHEMBL4400564, “Structure-activity relationship studies of Bz amide-containing α-GalCer derivatives as natural killer T cell modulators” (Bioorg Med Chem Lett, 2019).
Activity calls are given as the source filed them. The rule behind the calls is not given here.

Legend:
[1] = target: T1, Antigen-presenting glycoprotein CD1d1 (Mus musculus) (UniProt P11609); test: Binding affinity to Ig-tagged mouse CD1d assessed as increase in IL-2 production in NKT hybridoma cells exposed to 24 hrs pre-treated compound/CD1d mixture and measured after 48 hrs by ELISA based APC free assay; type: cell-based
T1 sequence (whole entry): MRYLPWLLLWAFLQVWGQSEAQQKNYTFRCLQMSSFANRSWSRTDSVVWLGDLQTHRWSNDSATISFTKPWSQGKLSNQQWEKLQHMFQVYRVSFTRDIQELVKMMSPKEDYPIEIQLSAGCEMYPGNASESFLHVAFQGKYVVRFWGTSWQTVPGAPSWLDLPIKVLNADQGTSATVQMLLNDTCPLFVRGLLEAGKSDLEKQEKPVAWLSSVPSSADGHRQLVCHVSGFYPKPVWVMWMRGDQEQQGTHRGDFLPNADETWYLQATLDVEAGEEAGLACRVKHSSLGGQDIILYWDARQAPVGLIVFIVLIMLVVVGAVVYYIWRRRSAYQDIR

Splenocyte [2] = test: Reduction of IFN-gamma production in C57BL/6J mouse splenocyte at 1 to 100 nM after 48 hrs by ELISA relative to alpha-GalCer; type: functional, cell-based
Splenocyte [3] = test: Induction of IL-4 production in C57BL/6J mouse splenocyte at 1 to 100 nM after 48 hrs by ELISA relative to alpha-GalCer; type: functional, cell-based

Activity [1]	SMILES	Activity (Splenocyte [2])	Activity (Splenocyte [3])
Dose-dependent effect	CCCCCCCCCCCCCC[C@@H](O)[C@@H](O)[C@H](CO[C@H]1O[C@H](CO)[C@H](O)[C@H](O)[C@H]1O)NC(=O)CCCCCCCCCCCNC(=O)C(C)(C)C	Active	Active
Dose-dependent effect	CCCCCCCCCCCCCC[C@@H](O)[C@@H](O)[C@H](CO[C@H]1O[C@H](CO)[C@H](O)[C@H](O)[C@H]1O)NC(=O)CCCCCCCCCCCNC(=O)c1ccccc1F	Active	Active
Dose-dependent effect	CCCCCCCCCCCCCC[C@@H](O)[C@@H](O)[C@H](CO[C@H]1O[C@H](CO)[C@H](O)[C@H](O)[C@H]1O)NC(=O)CCCCCCCCCCCNC(=O)C1CCNCC1	Active	Active
Dose-dependent effect	CCCCCCCCCCCCCC[C@@H](O)[C@@H](O)[C@H](CO[C@H]1O[C@H](CO)[C@H](O)[C@H](O)[C@H]1O)NC(=O)CCCCCCCCCCCNC(=O)c1cccc(F)c1	Active	Active
Dose-dependent effect	CCCCCCCCCCCCCC[C@@H](O)[C@@H](O)[C@H](CO[C@H]1O[C@H](CO)[C@H](O)[C@H](O)[C@H]1O)NC(=O)CCCCCCCCCCCNC(=O)c1ccc(OC)cc1	Active	Active
Dose-dependent effect	CCCCCCCCCCCCCC[C@@H](O)[C@@H](O)[C@H](CO[C@H]1O[C@H](CO)[C@H](O)[C@H](O)[C@H]1O)NC(=O)CCCCCCCCCCCNC(=O)c1ccccc1OC	Active	Active
Dose-dependent effect	CCCCCCCCCCCCCC[C@@H](O)[C@@H](O)[C@H](CO[C@H]1O[C@H](CO)[C@H](O)[C@H](O)[C@H]1O)NC(=O)CCCCCCCCCCCNC(=O)c1ccccc1	Active	Active
Dose-dependent effect	CCCCCCCCCCCCCC[C@@H](O)[C@@H](O)[C@H](CO[C@H]1O[C@H](CO)[C@H](O)[C@H](O)[C@H]1O)NC(=O)CCCCCCCCCCCNC(=O)C1CCCCC1	Active	Active
Dose-dependent effect	CCCCCCCCCCCCCC[C@@H](O)[C@@H](O)[C@H](CO[C@H]1O[C@H](CO)[C@H](O)[C@H](O)[C@H]1O)NC(=O)CCCCCCCCCCCNC(=O)c1ccc(F)cc1	Active	Active
Dose-dependent effect	CCCCCCCCCCCCCC[C@@H](O)[C@@H](O)[C@H](CO[C@H]1O[C@H](CO)[C@H](O)[C@H](O)[C@H]1O)NC(=O)CCCCCCCCCCCNC(=O)c1cccc(OC)c1	Active	Active
